Values after ≈ are worked out from the molar mass of the structure shown.
What was measured:
[1] = test system: iron-overloaded rat model; assay: Histological assessment of organs (H&E and Pearl's stain for iron deposits); format: in vivo, Wistar rats
Method: Ethical approval of the study protocol was obtained from the Institutional Review Board at the University of Jordan (Approval No. 47–2022) on 17th May 2022 (document No. 19/2022/289). Throughout the study, all animals were housed, fed, and treated in accordance with The University of Jordan ethical guidelines for animal protection. The animal house of the University of Jordan, which is equipped with proper ventilation and temperature control (25 ± 4°C) systems, was utilized for the study. Each animal was placed in a separate standard cage. Sixteen male Wistar rats (6 weeks old, average weight 220 ± 10 g) were subjected to an iron-enriched diet containing 2.5% carbonyl iron according to Ackerman et al. for 6 weeks. Another group of eight rats (control group) was subjected to an ordinary pellet diet for the same period. The 16 animals with iron fortified diets were then separated into two groups of eight: the DFX group which received DFX alone and the DFX-CP group which received DFX plus CP, for 6 days. Drugs were given orally through proper mixing with food so that on average, each animal would ingest 30 mg/kg DFX daily incorporated within 15 gm of dried food. For the DFX-CP group, the 15 g dried food contained CP equivalent to 30 mg/kg of animal weight. […]

[2] = parameters: method as in PMID 10508341, doi:10.1002/ejic.200400363; details: cited from earlier work
[3] = Saturation solubility, shake-flask with HPLC; format: physicochemical; details: (±SD) in brackets, n = 3
Method: The molar ratio of association between iron and either of the drugs was determined by completely dissolving 2.7 mg of the metal complex products in 10 mL of a mixture of butanol, DMSO, and DMF (3:5:2). Solutions were then diluted twice in DMSO and five times in mobile phase before being injected into HPLC. The developed HPLC method was validated for this purpose and for the determination of solubility and partition coefficients (PCs). The optimum conditions developed comprised a phenyl column (4.6 mm ID; 150 mm·L; Thermo Scientific Hypersil) with a mobile phase consisting of 34% acetonitrile in a 50 mM phosphate buffer. The mobile phase mixture contained 0.032% citric acid, 0.02% EDTA, 0.032% hydroxylamine HCl, and 0.07% trimethylamine, with the overall pH adjusted to 3.7. The mobile phase was delivered isocratically at a flow rate of 1.2 mL/min, and chromatograms monitored at 290 nm.
(§1) Excess solid of each compound to be tested was added to 6 mL of either phosphate buffer (pH 6.8), acetate buffer (pH 4.5), or 0.1 M HCl and left on a shaker water bath (37°C) for 24 h. One mL was centrifuged for 10 min, and 100 μL of the supernatant was properly diluted with the mobile phase (1:4) before being injected onto HPLC. For determination of octanol/H2O PC, 0.6 mL of the supernatant solution was transferred to a new tube containing 2 mL of octanol. Tubes containing the two layers of octanol and aqueous phase were kept on shaker water bath (37°C) for 24 h. Aliquots of aqueous layer were properly diluted with the mobile phase before being injected onto HPLC. The concentration of the drug in octanol layer was calculated by difference.

[4] = Apparent octanol/H2O partition coefficient; format: physicochemical; details: (±SD) in brackets, n = 3
Method: as §1

[5] = test system: iron-overloaded rat model; assay: Level of iron in blood and other tissues determined by AAS; format: in vivo, Wistar rats; details: (SD), n = 8
Method: (§2) Ethical approval of the study protocol was obtained from the Institutional Review Board at the University of Jordan (Approval No. 47–2022) on 17th May 2022 (document No. 19/2022/289). Throughout the study, all animals were housed, fed, and treated in accordance with The University of Jordan ethical guidelines for animal protection. The animal house of the University of Jordan, which is equipped with proper ventilation and temperature control (25 ± 4°C) systems, was utilized for the study. Each animal was placed in a separate standard cage. Sixteen male Wistar rats (6 weeks old, average weight 220 ± 10 g) were subjected to an iron-enriched diet containing 2.5% carbonyl iron according to Ackerman et al. for 6 weeks. Another group of eight rats (control group) was subjected to an ordinary pellet diet for the same period. The 16 animals with iron fortified diets were then separated into two groups of eight: the DFX group which received DFX alone and the DFX-CP group which received DFX plus CP, for 6 days. Drugs were given orally through proper mixing with food so that on average, each animal would ingest 30 mg/kg DFX daily incorporated within 15 gm of dried food. For the DFX-CP group, the 15 g dried food contained CP equivalent to 30 mg/kg of animal weight. Blood samples were collected from animals using the orbital venous plexus bleeding method with the aid of ether anesthesia in special EDTA tubes on days 1, 3, and 6 after initiation of the drug treatment. Blood samples were centrifuged, and plasma was collected in Eppendorf tubes and kept at −80°C until time of analysis for DFX. On the sixth day of the treatment, animals were sacrificed by cervical dislocation with the aid of mild anesthesia. Liver, heart, kidney, spleen, and the whole gastrointestinal tract (GIT) of all animals were collected and immediately stored in 10% formalin solution for further assessment.
Accurately weighed samples of the tissues to be determined (90–120 mg for liver, and 50–80 mg for heart and spleen) were digested in 1.5 mL of concentrated H2SO4 at 60°C for two days. Samples were vortex mixed and initially diluted 12 times using 2M HCl and filtered using a 0.45 μm PTFE syringe filters. Further dilutions were made if necessary and as appropriate upon sample measurement. Samples were read on Aurora AI1200 atomic absorption spectrophotometer at the specific wavelength of iron. FeCl3 standard solution 1000 μg/mL (Scharlau, Spain) was used to prepare calibration curve solutions. Proper blank samples were prepared along with the calibration curve of standard iron solution. Linearity was established in the range 0.1–8 µg/mL, with a linearity coefficient > 0.99. A typical calibration equation was […]. For statistical analysis, the potential existence of a significant difference between the averages of two groups, a t-test was employed using GraphPad software.

[6] = parameters: method as in PMID 10508341, doi:10.1002/ejic.200400363; details: practically measured; cited from earlier work
[7] = Level of DFX in plasma of iron-overloaded rats (HPLC); format: in vivo; details: male, Wistar, rat, (SD), N = 8
Method: as §2, with “Liver, heart, kidney, spleen, and the whole gastrointestinal tract (GIT) of all animals were collected and immediately stored in 10% formalin solution for further assessment.” left out
DFX was determined in plasma and GIT content using a slightly modified HPLC method from that employed in the solubility studies. […]
The method was properly validated for selectivity, precision, accuracy, and linearity. […] However, CP could not be determined by this method as it was coeluted early with other components of the plasma. […]

- solubility at 24 h ([3]; 0.1 M HCl, pH 1.2, pH 1.2 (0.1 M HCl), 37°C): 9.9 µg/mL (≈ 26.5 µM)
- solubility at 24 h ([3]; acetate buffer, pH 4.5, pH 4.5 acetate buffer, 37°C): 19.1 µg/mL (≈ 51.2 µM)
- Solubility ([3]; pH 6.8 phosphate buffer, 37°C, 24 h): 140.8 (1.9) μg/mL
- solubility at 24 h ([3]; phosphate buffer, 37 °C, pH 6.8, aqueous buffer, thermodynamic from solid, pH 6.8 phosphate buffer): 140 µg/mL (≈ 375 µM)
- Apparent partition coefficient ([4]; pH 4.5, 37°C): 2.1 (5.7)
- Apparent partition coefficient ([4]; pH 6.8, 37°C): 7.9 (1.11)
- concentration at 1 day ([7]; 1 day after start of drugs in food (30 mg/kg daily oral)): 1200 ng/mL
- concentration at 3 day ([7]; 3 days after start of drugs in food (30 mg/kg daily oral)): 10700 ng/mL
- concentration at 6 day ([7]; 6 days after start of drugs in food (30 mg/kg daily oral)): 9700 ng/mL
SMILES: O=C(O)c1ccc(-n2nc(-c3ccccc3O)nc2-c2ccccc2O)cc1 [DFX, Deferasirox]
- Iron deposition in spleen tissue (Pearl's stain) ([1]; compared with the combined treatment group and the control group, seen in six out of eight animals): clearly higher levels of deposited iron
- Iron deposition in liver tissue (Pearl's stain) ([1]; compared with the combined treatment group, seen in six of eight animals): higher level of iron deposition
- Affinity of DFX to Fe^2+ [2]: very low affinity
- Content of iron in dried tissue ([5]; dried blood, 3 days after initiation of chelation therapy): 4.73 (0.2) mg/100g of tissue
- Content of iron in dried tissue ([5]; dried blood, 6 days after initiation of chelation therapy): 4.94 (0.2) mg/100g of tissue
- Content of iron in dried tissue ([5]; heart, after 6 days of treatment): 50.3 (2.7) mg/100g of tissue
- Content of iron in dried tissue ([5]; liver, after 6 days of treatment): 162.6 (10.1) mg/100g of tissue
- Content of iron in dried tissue ([5]; spleen, after 6 days of treatment): 168.8 (9.8) mg/100g of tissue
- Formation constants of DFX to Fe^3+ [6]: 10^37-10^38
